Earlier results in patent publication US20120071320A1, “LIQUID AGRICULTURAL FORMULATIONS OF IMPROVED STABILITY” (priority 2010, published 2012).

Conditions: aqueous buffer solutions, both acidic and basic conditions

In the case of `COC(=O)c1sccc1S(=O)(=O)NC(=O)Nc1nc(C)nc(OC)n1` [thifensulfuron methyl], the hydrolysis rate is given as “relatively fast”.
